Experimental data: ChEMBL document CHEMBL1130668, “Synthesis and evaluation of paclitaxel C7 derivatives: solution phase synthesis of combinatorial libraries” (1998)
Activity calls are given as the source filed them. The rule behind the calls is not given here.

Key:
MCF7 [1] = assay: Cytotoxicity activity was measured against human breast cancer cell line MCF-7 with respect to ED50 of paclitaxel (2 nM); IA inactive; format: functional, cell-based
MCF7 [2] = assay: Cytotoxicity activity was measured against resistant human breast cancer cell line MCF-7 with respect to ED50 of paclitaxel (2200-3700 nM); IA inactive; format: functional, cell-based
[3] = Ratio in tubulin to that of paclitaxel (0.3 uM) in microtubule assembly assay; IA inactive; format: functional
MCF7 [4] = assay: Cytotoxicity activity was measured against human breast cancer cell line MCF-7; Did not inhibit proliferation at maximum concentration tested; format: functional; details: read-out: ED50 (the source's name)
MCF7 [5] = assay: Cytotoxicity activity was measured against resistant human breast cancer cell line MCF-7; Did not inhibit proliferation at maximum concentration tested; format: functional; details: read-out: ED50 (the source's name)
MCF7 [6] = assay: Effect on microtubule assembly in MCF-7 cells, compared to paclitaxel (0.3 uM), given as ratio of respective ED50; format: functional, Homo sapiens

For CCCCCCCCCCCCC(=O)O[C@H]1C[C@H]2OC[C@@]2(OC(C)=O)[C@H]2[C@H](OC(=O)c3ccccc3)[C@]3(O)C[C@H](OC(=O)[C@H](O)[C@@H](NC(=O)c4ccccc4)c4ccccc4)C(C)=C([C@@H](OC(C)=O)C(=O)[C@]12C)C3(C)C, the ED50 (MCF7 [1]) was “inactive”, the ED50 (MCF7 [2]) was “inactive” and the Ratio [3] was “inactive”.

In the case of CC(=O)O[C@H]1C(=O)[C@]2(C)[C@@H](OC(=O)c3cnc(Cl)c(Cl)c3)C[C@H]3OC[C@@]3(OC(C)=O)[C@H]2[C@H](OC(=O)c2ccccc2)[C@]2(O)C[C@H](OC(=O)[C@H](O)[C@@H](NC(=O)c3ccccc3)c3ccccc3)C(C)=C1C2(C)C, the ED50 (MCF7 [1]) is reported as “inactive”, the ED50 (MCF7 [2]) is reported as “inactive” and the Ratio [3] is reported as “inactive”.

For CC(=O)O[C@H]1C(=O)[C@]2(C)[C@@H](OC(=O)/C=C/Cl)C[C@H]3OC[C@@]3(OC(C)=O)[C@H]2[C@H](OC(=O)c2ccccc2)[C@]2(O)C[C@H](OC(=O)[C@H](O)[C@@H](NC(=O)c3ccccc3)c3ccccc3)C(C)=C1C2(C)C, the EC50 (MCF7 [4]) was greater than 0.08 µM, the EC50 (MCF7 [5]) was greater than 5 µM and the Ratio (MCF7 [6]) was 5.3.

Work on C/C=C/C(=O)O[C@H]1C[C@H]2OC[C@@]2(OC(C)=O)[C@H]2[C@H](OC(=O)c3ccccc3)[C@]3(O)C[C@H](OC(=O)[C@H](O)[C@@H](NC(=O)c4ccccc4)c4ccccc4)C(C)=C([C@@H](OC(C)=O)C(=O)[C@]12C)C3(C)C [PACLITAXEL C7 CROTONIC ACID ESTER] yielded an EC50 (MCF7 [4]) greater than 0.08 µM, an EC50 (MCF7 [5]) greater than 5 µM and a Ratio (MCF7 [6]) of 6.7.

CC(=O)O[C@H]1C(=O)[C@]2(C)[C@@H](OC(=O)c3ccc4ccccc4c3)C[C@H]3OC[C@@]3(OC(C)=O)[C@H]2[C@H](OC(=O)c2ccccc2)[C@]2(O)C[C@H](OC(=O)[C@H](O)[C@@H](NC(=O)c3ccccc3)c3ccccc3)C(C)=C1C2(C)C showed an EC50 (MCF7 [4]) greater than 0.08 µM, an EC50 (MCF7 [5]) greater than 5 µM and a Ratio (MCF7 [6]) of 60.

For CC(=O)O[C@H]1C(=O)[C@]2(C)[C@@H](OC(=O)CCc3ccccc3)C[C@H]3OC[C@@]3(OC(C)=O)[C@H]2[C@H](OC(=O)c2ccccc2)[C@]2(O)C[C@H](OC(=O)[C@H](O)[C@@H](NC(=O)c3ccccc3)c3ccccc3)C(C)=C1C2(C)C, the ED50 (MCF7 [1]) was “inactive”, the ED50 (MCF7 [2]) was “inactive” and the Ratio [3] was “inactive”.

CC(=O)O[C@H]1C(=O)[C@]2(C)[C@@H](OC(=O)c3cccnc3C)C[C@H]3OC[C@@]3(OC(C)=O)[C@H]2[C@H](OC(=O)c2ccccc2)[C@]2(O)C[C@H](OC(=O)[C@H](O)[C@@H](NC(=O)c3ccccc3)c3ccccc3)C(C)=C1C2(C)C showed an EC50 (MCF7 [4]) greater than 0.08 µM, an EC50 (MCF7 [5]) greater than 5 µM and a Ratio (MCF7 [6]) of 32.
